Values after ≈ are worked out from the molar mass of the structure shown. *1 amine or outer side, *2 acyl side, *3 side chain or, on linkers, in order; H or OH if unused. Where a SMILES comes first, the peptide text is derived from it. Side-chain parts run from the residue outwards. [ ]: non-standard residue; d: D form. The star is where a group is joined. γGlu = O=C(O)[C@H](CCC(=O)[*:2])N[*:1]; Palmitoyl = CCCCCCCCCCCCCCCC(=O)*
What was measured:
[1] = physchem; format: physicochemical
Procedure: Prior to the testing of solubility and stability of a peptide batch, its content was determined. Therefore, two parameters were investigated, its purity (HPLC-UV) and the amount of salt load of the batch (ion chromatography). Since synthesized peptides contain primarily trifluoracetate anions, only anion chromatography was performed. The content was then calculated based on the assumption that peptide-related impurities are detected at the same UV-absorption rate as the target peptide, as well as that cations are not present in the sample.
Therefore, solutions from solid samples were prepared in different buffer systems with a concentration of 1.0 mg/mL compound based on the previously determined content. HPLC-UV was performed after 2 h of gentle agitation from the supernatant, which was obtained by 20 min of centrifugation at 4000 rpm. […] This analysis also served as t0 for the stability testing.
Instrument: Agilent 1100, column: X-Bridge C18 3.5 μm 2.1×150 mm (Waters), eluent: A: H20+500 ppm TFA/B: Methanol, flow: 0.55 ml/min, gradient: 0-5 min: 10-60% B; 5-15 min: 60-99% B; detection: 214 nm.

[2] = biological target: T1, human GLP-1 receptor (hGLP-1 R) (Homo sapiens, UniProt P43220); assay: cAMP response (HTRF) of HEK-293 cells stably expressing human GLP-1 receptor; format: cell-based; settings: HEK-293 cells expressing human GLP-1 receptor, cAMP formation
T1 construct: expressed in transfected cells; host or cells: HEK-293
T1 sequence (P43220 24-463): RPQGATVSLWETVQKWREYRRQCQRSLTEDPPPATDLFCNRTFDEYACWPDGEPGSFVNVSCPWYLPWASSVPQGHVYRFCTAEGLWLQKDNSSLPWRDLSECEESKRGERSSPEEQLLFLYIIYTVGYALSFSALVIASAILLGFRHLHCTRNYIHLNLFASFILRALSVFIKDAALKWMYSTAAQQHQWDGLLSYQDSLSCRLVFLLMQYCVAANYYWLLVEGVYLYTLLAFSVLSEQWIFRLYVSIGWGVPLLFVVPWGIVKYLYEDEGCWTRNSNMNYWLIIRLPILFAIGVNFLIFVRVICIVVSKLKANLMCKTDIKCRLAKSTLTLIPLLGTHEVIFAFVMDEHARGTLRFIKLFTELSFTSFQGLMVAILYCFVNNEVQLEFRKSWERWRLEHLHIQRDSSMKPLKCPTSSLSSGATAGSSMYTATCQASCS
Procedure, shortened: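 Detached HEK-293 cells stably expressing the receptor were suspended in HBSS with 20 mM HEPES, 0.1% BSA and 2 mM IBMX. Test compound was added for 30 min at room temperature, and cellular cAMP was quantified by HTRF.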

| Structure (SMILES) | solubility at 2 h ([1]; pH 4.5) [µg/mL] | solubility at 2 h ([1]; pH 7.4) [µg/mL] | EC50 [2] [pM] |
| --- | --- | --- | --- |
| CCCCCCCCCCCCCCCC(=O)N[C@@H](CCC(=O)NCCCC[C@H](NC(=O)[C@H](CO)NC(=O)[C@@H]1CCCN1C(=O)[C@@H]1CCCN1C(=O)[C@@H]1CCCN1C(=O)[C@H](C)NC(=O)CNC(=O)[C@H](CO)NC(=O)[C@H](CO)NC(=O)[C@@H]1CCCN1C(=O)CNC(=O)CNC(=O)[C@H](C)NC(=O)[C@H](CCCCN)NC(=O)[C@H](CC(C)C)NC(=O)[C@H](Cc1c[nH]c2ccccc12)NC(=O)[C@H](CCC(=O)O)NC(=O)[C@@H](NC(=O)[C@H](Cc1ccccc1)NC(=O)[C@H](CC(=O)O)NC(=O)[C@H](CCC(N)=O)NC(=O)[C@H](C)NC(=O)[C@H](CCCNC(=N)N)NC(=O)[C@H](CCCNC(=N)N)NC(=O)[C@H](CO)NC(=O)[C@H](CCC(=O)O)NC(=O)[C@H](CCSC)NC(=O)[C@H](CCC(N)=O)NC(=O)[C@H](CCCCN)NC(=O)[C@H](CO)NC(=O)[C@H](CC(C)C)NC(=O)[C@H](CC(=O)O)NC(=O)[C@H](CO)NC(=O)[C@@H](NC(=O)[C@H](Cc1ccccc1)NC(=O)[C@@H](NC(=O)CNC(=O)[C@H](CCC(N)=O)NC(=O)[C@@H](CO)NC(=O)[C@@H](N)Cc1c[nH]cn1)[C@@H](C)O)[C@@H](C)O)[C@@H](C)CC)C(N)=O)C(=O)O [(63)] (H-H[dS]QGTFTSDLSKQMESRRAQDFIEWLKAGGPSSGAPPPSK([γGlu-Palmitoyl])-NH2) | > 1000 | > 1000 | – |
| CCCCCCCCCCCCCCCC(=O)N[C@@H](CCC(=O)NCCCC[C@H](NC(=O)[C@H](CO)NC(=O)[C@@H]1CCCN1C(=O)[C@@H]1CCCN1C(=O)[C@@H]1CCCN1C(=O)[C@H](C)NC(=O)CNC(=O)[C@H](CO)NC(=O)[C@H](CO)NC(=O)[C@@H]1CCCN1C(=O)CNC(=O)CNC(=O)[C@H](CC(N)=O)NC(=O)[C@H](CCCCN)NC(=O)[C@H](CC(C)C)NC(=O)[C@H](Cc1c[nH]c2ccccc12)NC(=O)[C@H](CCC(=O)O)NC(=O)[C@@H](NC(=O)[C@H](Cc1ccccc1)NC(=O)[C@H](CC(=O)O)NC(=O)[C@H](CCCCN)NC(=O)[C@H](C)NC(=O)[C@H](CCCNC(=N)N)NC(=O)[C@H](CCCNC(=N)N)NC(=O)[C@H](CCC(=O)O)NC(=O)[C@H](CC(=O)O)NC(=O)[C@H](CCSC)NC(=O)[C@H](CCC(N)=O)NC(=O)[C@H](CCCCN)NC(=O)[C@H](CO)NC(=O)[C@H](CC(C)C)NC(=O)[C@H](CC(=O)O)NC(=O)[C@H](CO)NC(=O)[C@@H](NC(=O)[C@H](Cc1ccccc1)NC(=O)[C@@H](NC(=O)CNC(=O)[C@H](CCC(N)=O)NC(=O)[C@@H](CO)NC(=O)[C@@H](N)Cc1c[nH]cn1)[C@@H](C)O)[C@@H](C)O)[C@@H](C)CC)C(N)=O)C(=O)O [(70)] (H-H[dS]QGTFTSDLSKQMDERRAKDFIEWLKNGGPSSGAPPPSK([γGlu-Palmitoyl])-NH2) | > 1000 | > 1000 | – |
| CCCCCCCCCCCCCCCC(=O)N[C@@H](CCC(=O)NCCCC[C@H](NC(=O)[C@H](CO)NC(=O)[C@@H]1CCCN1C(=O)[C@@H]1CCCN1C(=O)[C@@H]1CCCN1C(=O)[C@H](C)NC(=O)CNC(=O)[C@H](CO)NC(=O)[C@H](CO)NC(=O)[C@@H]1CCCN1C(=O)CNC(=O)CNC(=O)[C@H](CCCNC(=N)N)NC(=O)[C@H](CCCCN)NC(=O)[C@H](CC(C)C)NC(=O)[C@H](Cc1c[nH]c2ccccc12)NC(=O)[C@H](CCC(=O)O)NC(=O)[C@@H](NC(=O)[C@H](Cc1ccccc1)NC(=O)[C@H](CC(=O)O)NC(=O)[C@H](CCC(N)=O)NC(=O)[C@H](C)NC(=O)[C@H](CCCNC(=N)N)NC(=O)[C@H](CCCNC(=N)N)NC(=O)[C@H](CO)NC(=O)[C@H](CCC(=O)O)NC(=O)[C@H](CCSC)NC(=O)[C@H](CCC(N)=O)NC(=O)[C@H](CCCCN)NC(=O)[C@H](CO)NC(=O)[C@H](CC(C)C)NC(=O)[C@H](CC(=O)O)NC(=O)[C@H](CO)NC(=O)[C@@H](NC(=O)[C@H](Cc1ccccc1)NC(=O)[C@@H](NC(=O)CNC(=O)[C@H](CCC(N)=O)NC(=O)[C@@H](CO)NC(=O)[C@@H](N)Cc1c[nH]cn1)[C@@H](C)O)[C@@H](C)O)[C@@H](C)CC)C(N)=O)C(=O)O [(75)] (H-H[dS]QGTFTSDLSKQMESRRAQDFIEWLKRGGPSSGAPPPSK([γGlu-Palmitoyl])-NH2) | > 1000 | > 1000 | 4.6 |
| CCCCCCCCCCCCCCCC(=O)N[C@@H](CCC(=O)NCCCC[C@H](NC(=O)[C@H](CO)NC(=O)[C@@H]1CCCN1C(=O)[C@@H]1CCCN1C(=O)[C@@H]1CCCN1C(=O)[C@H](C)NC(=O)CNC(=O)[C@H](CO)NC(=O)[C@H](CO)NC(=O)[C@@H]1CCCN1C(=O)CNC(=O)[C@@H](C)NC(=O)[C@H](CCCNC(=N)N)NC(=O)[C@H](CCCCN)NC(=O)[C@H](CC(C)C)NC(=O)[C@H](Cc1c[nH]c2ccccc12)NC(=O)[C@H](CCC(=O)O)NC(=O)[C@@H](NC(=O)[C@H](Cc1ccccc1)NC(=O)[C@H](CC(=O)O)NC(=O)[C@H](CCC(N)=O)NC(=O)[C@H](C)NC(=O)[C@H](CCCNC(=N)N)NC(=O)[C@H](CCCNC(=N)N)NC(=O)[C@H](CO)NC(=O)[C@H](CCC(=O)O)NC(=O)[C@H](CCSC)NC(=O)[C@H](CCC(N)=O)NC(=O)[C@H](CCCCN)NC(=O)[C@H](CO)NC(=O)[C@H](CC(C)C)NC(=O)[C@H](CC(=O)O)NC(=O)[C@H](CO)NC(=O)[C@@H](NC(=O)[C@H](Cc1ccccc1)NC(=O)[C@@H](NC(=O)CNC(=O)[C@H](CCC(N)=O)NC(=O)[C@@H](CO)NC(=O)[C@@H](N)Cc1c[nH]cn1)[C@@H](C)O)[C@@H](C)O)[C@@H](C)CC)C(N)=O)C(=O)O [(76)] (H-H[dS]QGTFTSDLSKQMESRRAQDFIEWLKR[dA]GPSSGAPPPSK([γGlu-Palmitoyl])-NH2) | 952 (≈ 199 µM) | > 1000 | – |
| CCCCCCCCCCCCCCCC(=O)N[C@@H](CCC(=O)NCCCC[C@H](NC(=O)[C@H](CO)NC(=O)[C@@H]1CCCN1C(=O)[C@@H]1CCCN1C(=O)[C@@H]1CCCN1C(=O)[C@H](C)NC(=O)CNC(=O)[C@H](CO)NC(=O)[C@H](CO)NC(=O)[C@@H]1CCCN1C(=O)CNC(=O)CNC(=O)[C@H](CCCCN)NC(=O)[C@H](CCCCN)NC(=O)[C@H](CC(C)C)NC(=O)[C@H](Cc1c[nH]c2ccccc12)NC(=O)[C@H](CCC(=O)O)NC(=O)[C@@H](NC(=O)[C@H](Cc1ccccc1)NC(=O)[C@H](CC(=O)O)NC(=O)[C@H](CCC(N)=O)NC(=O)[C@H](C)NC(=O)[C@H](CCCNC(=N)N)NC(=O)[C@H](CCCNC(=N)N)NC(=O)[C@H](CO)NC(=O)[C@H](CCC(=O)O)NC(=O)[C@H](CCSC)NC(=O)[C@H](CCC(N)=O)NC(=O)[C@H](CCCCN)NC(=O)[C@H](CO)NC(=O)[C@H](CC(C)C)NC(=O)[C@H](CC(=O)O)NC(=O)[C@H](CO)NC(=O)[C@@H](NC(=O)[C@H](Cc1ccccc1)NC(=O)[C@@H](NC(=O)CNC(=O)[C@H](CCC(N)=O)NC(=O)[C@@H](CO)NC(=O)[C@@H](N)Cc1c[nH]cn1)[C@@H](C)O)[C@@H](C)O)[C@@H](C)CC)C(N)=O)C(=O)O [(77)] (H-H[dS]QGTFTSDLSKQMESRRAQDFIEWLKKGGPSSGAPPPSK([γGlu-Palmitoyl])-NH2) | > 1000 | > 1000 | – |
| CCCCCCCCCCCCCCCC(=O)N[C@@H](CCC(=O)NCCCC[C@H](NC(=O)[C@H](CO)NC(=O)[C@@H]1CCCN1C(=O)[C@@H]1CCCN1C(=O)[C@@H]1CCCN1C(=O)[C@H](C)NC(=O)CNC(=O)[C@H](CO)NC(=O)[C@H](CO)NC(=O)[C@@H]1CCCN1C(=O)CNC(=O)CNC(=O)[C@H](CO)NC(=O)[C@H](CCCCN)NC(=O)[C@H](CC(C)C)NC(=O)[C@H](Cc1c[nH]c2ccccc12)NC(=O)[C@H](CCC(=O)O)NC(=O)[C@@H](NC(=O)[C@H](Cc1ccccc1)NC(=O)[C@H](CC(=O)O)NC(=O)[C@H](CCC(N)=O)NC(=O)[C@H](C)NC(=O)[C@H](CCCNC(=N)N)NC(=O)[C@H](CCCNC(=N)N)NC(=O)[C@H](CO)NC(=O)[C@H](CCC(=O)O)NC(=O)[C@H](CCSC)NC(=O)[C@H](CCC(N)=O)NC(=O)[C@H](CCCCN)NC(=O)[C@H](CO)NC(=O)[C@H](CC(C)C)NC(=O)[C@H](CC(=O)O)NC(=O)[C@H](CO)NC(=O)[C@@H](NC(=O)[C@H](Cc1ccccc1)NC(=O)[C@@H](NC(=O)CNC(=O)[C@H](CCC(N)=O)NC(=O)[C@@H](CO)NC(=O)[C@@H](N)Cc1c[nH]cn1)[C@@H](C)O)[C@@H](C)O)[C@@H](C)CC)C(N)=O)C(=O)O [(78)] (H-H[dS]QGTFTSDLSKQMESRRAQDFIEWLKSGGPSSGAPPPSK([γGlu-Palmitoyl])-NH2) | > 1000 | > 1000 | 4.2 |

Reference: patent publication US9181305B2, “Exendin-4 peptide analogues” (SANOFI, priority 2012, dated 2015)
